Experimental data from the pKa sets of Baltruschat and Czodrowski (2020).

details: acidic group

In order of falling pKa:
1. C[n+]1c(N)ccnc1[O-]  13.5
2. CSc1nc2cc3c(cc2[nH]1)CCCC3  13
3. CC(C)CNC=S  12.8
4. c1ccc2c(c1)ccc1nc[nH]c12  12.5
5. NC(=S)Nc1ccc(Br)cc1  12.3
6. CCO/C([O-])=N/c1ncnc2nc[nH]c12  12.2
7. CC1CCCC(=O)C1=O (stereo not drawn)  11.2
8. CN1C(=O)NCc2[nH]cnc21  11.1
9. COc1ccc(NC(=S)c2cccc(Br)c2)cc1  11
10. Cc1cc(Cc2cc([N+](=O)[O-])ccc2[O-])cc(C)c1O  10.9
11. CC(=O)C(C)C(C)=O  10.8
12. O/N=C/c1ccc(Cl)cc1  10.5
13. N#Cc1ccc(S(=O)(=O)NCc2ccccc2)cc1  10.3
14. O=C([O-])CCS  10.3
15. O/N=C1C=C/C(=N\O)c2cccnc2/1  10
16. Cc1cc(Nc2ccc(O)cc2)cc(C)c1O  10
17. CC(=O)CC(=O)C(C)(C)C  9.94
18. Cc1ccc(O)c2ncccc12  9.93
19. CCC(=O)c1cc(C(=O)C(C)(C)C)n[nH]1  9.7
20. Cc1nc2nc([O-])[nH]c(=O)c2[nH]1  9.7
21. S=c1[nH]c(SCc2ccccc2)c(-c2ccccc2)[nH]1  9.55
22. CCc1cccc2ccc(O)cc12  9.54
23. O=C1CCCC1=O  9.14
24. Oc1ccc2nc3ccccc3cc2c1  8.81
25. CC1=CC(=O)C(C(C)C)=C/C1=N/c1ccc(O)cc1  8.8
26. OCc1nc2ncncc2[nH]1  8.79
27. CC(C)CCC[NH+](C)CCCNC(=O)/C=N/O  8.72
28. Oc1cccc2c1-c1ccccc1-2  8.64
29. Cc1cccc(O)c1C(=O)Oc1ccccc1  8.63
30. CCCCCc1c(-c2ccccc2)n[nH]c1O  8.4
31. c1cc[n+]2c(c1)C[n+]1ccccc1C2  8.12
32. [NH3+]Cc1ccc(F)c(O)c1  8
33. COC(=O)[C@H](NC(=O)Cc1ccccc1)[C@@H]1SC(C)(C)[C@H]2C(=O)NC(=S)N12  8
34. SCC[NH2+]CCc1ccccc1  7.85
35. N#Cc1cccc(NS(=O)(=O)c2ccccc2)c1  7.15
36. Nc1ccc(S(=O)(=O)Nc2ccc(Br)nc2)cc1  7.12
37. CCCC1(Br)C(=O)NC(=O)NC1=O  6.6
38. COP(=O)([O-])NS(C)(=O)=O  6.55
39. CCC1C(=O)c2ccccc2C1=O  6.5
40. CCCC1(CCC)SC(=O)NC1=O  6.37
41. O=C([O-])C[NH+](CC(=O)[O-])Cc1cc(Cl)cc(C[NH+](CC(=O)[O-])CC(=O)[O-])c1O  6.27
42. N#Cc1c(-c2nc3ccccc3o2)c(=O)oc2cc(O)ccc12  6.07
43. N#Cc1ccc2c(c1)C([P+](c1ccccc1)(c1ccccc1)c1ccccc1)c1ccccc1-2 (stereo not drawn)  5.81
44. Cc1nnn[nH]1  5.52
45. Cc1cc(O)n(-c2nc(O)cc(C)[nH+]2)n1  5.23
46. CC/C(C)=C/C(=O)O  5.14
47. CS(=O)(=O)NC(N)=O  5.1
48. COc1cnc(N)s1  4.98
49. O=C(O)CC1NC(=O)c2ccccc2O1 (stereo not drawn)  4.9
50. O=C(O)CCCc1c[nH]c2ccccc12  4.82
51. [NH3+]CCCCCCCCCCCC(=O)O  4.65
52. O=C(O)CCc1ccc(Cl)cc1  4.65
53. COc1ccccc1/C=C/C(=O)O  4.57
54. CCCCCOc1ccc(C(=O)O)cc1  4.49
55. CC(C)C([NH2+]c1ccccc1)C(=O)O (stereo not drawn)  4.4
56. COc1cc(C)ccc1C(=O)O  4.38
57. Cc1cc(C(=O)O)ccc1Br  4.03
58. CCN(CC)C(=S)S  3.95
59. O=C(O)c1ccoc1  3.94
60. Cc1c(Cn2cc[nH+]c2)oc2ccc(C(=O)O)cc12  3.91
61. COc1cccc(C(=O)O)c1C  3.72
62. CCC(=O)c1nc(C(=O)O)cs1  3.7
63. O=C(O)c1ccccc1O[C@H]1O[C@@H](CO)[C@H](O)[C@@H](O)[C@@H]1O  3.6
64. O=C(O)C1CC1(Cl)Cl (stereo not drawn)  3.51
65. O=C1OC2C3CC4C2C4(C(=O)O)C13Br (stereo not drawn)  3.5
66. N#CCC(C(=O)O)c1ccccc1 (stereo not drawn)  3.44
67. O=C(O)c1ccc(F)c([N+](=O)[O-])c1  3.37
68. CCCCP(=O)(O)CCCC  3.22
69. O=C1C=C(O)C(=O)c2ccccc21  3.19
70. O=C1CC(=O)CS(=O)C1  3.12
71. O=C(O)[C@@]1(Cl)[C@@H]2CCC[C@@H]21  3.03
72. Nc1c[nH+]c(S)nc1N  2.96
73. CNc1cccc[n+]1O  2.61
74. N#CC(C(=O)O)C1CCCCC1 (stereo not drawn)  2.37
75. O=C(O)C#CI  2
76. Oc1ccc(/N=N/c2nccs2)c(O)c1  1.56
77. Sc1cc[nH+]cc1  1.43
78. CCCNC(O)=S  0.52
79. Oc1cccc[n+]1OCc1ccccc1  -1.7

same assay, conditions: basic group

In order of rising pKa:
1. S=c1[nH]c(SCc2ccccc2)c(-c2ccccc2)[nH]1  -3.31
2. CN(C)C(=S)c1ccccc1  -2.3
3. N#CC(C#N)=NNc1ccc(C(=O)CCl)cc1  -0.76
4. O=C(O)c1ccoc1  -0.59
5. O=C(Cc1cnccn1)c1ccccc1  0.33
6. c1ccc(Nc2ccccc2)cc1  0.76
7. Nc1ncc(S(=O)(=O)c2ccccc2)s1  1.79
8. OCc1nc2ncncc2[nH]1  2.62
9. O=[N+]([O-])c1ccc(O)c2ncccc12  2.88
10. Cc1cc(-c2ccccc2)nn2c(C[NH+]3CCOCC3)cnc12  2.9
11. Nc1ccc2cc([N+](=O)[O-])ccc2c1  2.9
12. Nc1ccc(C(=O)c2ccc(N)cc2)cc1  2.92
13. COc1ncnc2ccccc12  3.13
14. C[NH2+]CCN(C)CC[NH3+]  3.38
15. COc1ccc([N+](=O)[O-])c2cccnc12  3.55
16. O/N=C1C=C/C(=N\O)c2cccnc2/1  3.7
17. COCCNc1cccc(OC)c1  3.7
18. NOCc1ccc([N+](=O)[O-])cc1  3.96
19. Cc1ccc(C)nn1  3.99
20. Cc1ncc(C[NH3+])c(N)n1  4
21. CCc1ccnnc1C  4.03
22. Cc1ccc2c(c1)ncn2[C@H]1OC[C@H](O)[C@@H](O)[C@@H]1O  4.17
23. NOCc1ccc(Cl)cc1  4.22
24. NC(=O)Cc1ccccn1  4.34
25. CSc1ccc(N)cc1  4.4
26. N#CCCNc1ccccc1  4.5
27. Cc1nc(N)c2ncsc2n1  4.56
28. CCCCNc1cc[nH+]c([O-])n1  4.69
29. CNOC  4.75
30. COc1cc(S(C)=O)ccc1-c1nc2ccccc2[nH]1 (stereo not drawn)  4.76
31. CSc1nc2cc3c(cc2[nH]1)CCCC3  5
32. Cc1cccc2ncccc12  5
33. Cc1cn2nc(-c3ccccc3)ccc2n1  5.09
34. CN(C)O  5.2
35. COc1ccc(OC)c2c1nc(CO)n2C  5.24
36. c1ccc2c(c1)ccc1nc[nH]c12  5.28
37. Cc1ccc(O)c2ncccc12  5.29
38. Cc1nnc2c(c1C)CCCC2  5.41
39. CCCSS/C(CCO)=C(/C)N(C=O)Cc1cnc(C)nc1N  5.52
40. Oc1ccc2nc3ccccc3cc2c1  5.52
41. CCOc1ccc2[nH]cnc2c1  5.57
42. CCCCCCCCCCCCCCCCN(CC(O)CC)CC(O)CC (stereo not drawn)  5.6
43. C=Cc1ccc(C)nc1  5.67
44. OCCCc1ccncc1  5.9
45. CC1(C)[C@@H](N)[C@@H]1[NH3+]  5.97
46. Cc1cc(-c2ccccc2)nn2c(CN3CCOCC3)cnc12  6.01
47. Clc1ccc(C2CN2)cc1 (stereo not drawn)  6.18
48. O=C(CCN1CCOCC1)C(c1ccccc1)c1ccccc1  6.39
49. O=C(CCN1CCOCC1)c1ccccc1  6.5
50. C1CNCCNCC[NH2+]C1  6.75
51. [O-]/C(=C/c1ccncc1)c1ccccc1  7.05
52. CC(C)(C)[C@]1(O)CCN2C[C@H]3c4ccccc4CCc4cccc(c43)[C@@H]2C1  7.15
53. CCCN(C)N  7.35
54. C[n+]1c(N)ccnc1[O-]  7.38
55. CCCNCC[NH2+]CCC  7.53
56. CC[NH+](CC)CCNc1cc(C)nc(N)n1  7.6
57. CCCNN  7.92
58. NCC(N)C[NH3+]  7.95
59. C1CN2CCCN2C1  7.95
60. CCN(CC)CC(=O)NC1c2ccccc2-c2ccccc21  7.98
61. CNCC(=O)Nc1c(C)cccc1C  7.99
62. CN(C)/C=N/c1cccc(Br)c1  8.08
63. [NH3+]CCCNCCC[NH3+]  8.08
64. C[Si](C)(C)OC1CN(Cc2ccccc2)C1  8.08
65. COC1=CC=C2[C@@H]3Cc4ccc(OC)c5c4[C@]2(CCN3C)[C@@H]1O5  8.15
66. CCOc1nccc([O-])n1  8.2
67. CCCCCCCCN(CCO)CC(O)CC (stereo not drawn)  8.3
68. NCc1ccccc1[N+](=O)[O-]  8.59
69. CC1NCCCN1  9.09
70. CCC(O)CN(CC)CCO (stereo not drawn)  9.1
71. c1ccc(N=C(Nc2ccccc2)Nc2ccccc2)cc1  9.1
72. Cc1cnccc1N  9.15
73. Nc1ccncc1  9.16
74. C#CC(C)(C)N(C)C(C)(C)C  9.3
75. NCC(O)CO (stereo not drawn)  9.3
76. CN(C)CCO  9.36
77. [O-]c1ccncc1Br  9.4
78. CC(N)CO (stereo not drawn)  9.43
79. Cc1cc(N)c2ccccc2n1  9.44
80. COc1cc2c(cc1O)CCN1Cc3c(ccc(OC)c3OC)C[C@@H]21  9.55
81. NC1=N[C@@H](CC(=O)[O-])C(=O)N1CCCC(N)C(=O)[O-] (stereo partly drawn)  9.55
82. CN1C(=N)Cc2ccccc21  9.6
83. CCC(C)[C@H](N)C(=O)[O-] (stereo partly drawn)  9.62
84. NCC(=O)O  9.67
85. CC[C@]1(O)C[C@@H](C)N[C@H]2CCCC[C@@H]21  9.71
86. N[C@@H](Cc1nc(I)[n-]c1I)C(=O)[O-]  9.76
87. Cc1ccc(OC(=O)CCCCN(C)C)cc1  9.87
88. N[C@H]1C[C@@H]2CCCC[C@H]2C[C@@H]1N  9.97
89. CCN(CC)CCCC(C)Nc1cc(C)nc2cc(Cl)ccc12 (stereo not drawn)  10.2
90. NCCCC(=O)[O-]  10.5
91. CNCC(C)CNC  10.6
92. CCNCCC(=O)[O-]  10.6
93. CNC  11
94. [O-]c1ccccc1CN1CCCCC1  11
95. [O-]c1c(Cl)cc(Cl)cc1CN1CCCCC1  11.1
96. CC(C)N1CCCC1  11.2
97. [O-]c1ccc2ccccc2n1  11.7
98. CN(C)c1cccc2c(S(=O)(=O)[N-]CCN3CCNCCNCCNCC3)cccc12  11.8
99. O=C([O-])[C@H](NCCN[C@@H](C(=O)[O-])c1ccccc1[O-])c1ccccc1[O-]  12.1
